The structures appear in SMILES notation.

Assay [1] deals with iPSC-derived cardiomyocytes. The assay can be described thus: Seahorse Mito Stress Test and Glycolysis Stress Test. The format is cell-based, human. As for the experimental part: The Seahorse XFe96 Analyzer (Agilent) was used to assess metabolic activity of differentiated cardiomyocytes. Seahorse XFe96 cell culture microplates were coated with Geltrex (1:100 dilution in DMEM:F12). Cardiomyocytes were differentiated as described above then treated with DMSO or Torin1 (200 nM) starting at approximately two days after onset of beating for one week (˜days 9-16 of differentiation for most batches). After treatment, all cells were changed back into RPMI/B27/insulin media until assay preparation (performed at or before day 35 of differentiation). One day prior to assay, cardiomyocytes were dissociated with 0.1% trypsin-EDTA for 5 minutes then neutralized with RPMI/B27/insulin+10% fetal bovine serum (FBS) and plated at a density of 20,000-30,000 cells per well. Cardiomyocytes were maintained in serum-containing medium overnight to facilitate cell adhesion. One hour prior to the assay, the plates were changed to Seahorse assay media (XF Base Medium supplemented with 25 mM glucose, 1 mM sodium pyruvate, and 1 mM GlutaMAX), then incubated at 37 degrees C. in a CO2-free incubator with Seahorse assay media. […] Following measurement of the oxygen consumption rate (OCR) and extracellular acidification rate (ECAR) in response to serial injections of the stress test kit compounds, final cell density was determined using a CyQUANT assay (Thermo Fisher Scientific) to account for cell loss during washes. Cardiomyocytes not used for the Seahorse assay but at a similar day of differentiation were used to create a standard curve for the CyQUANT assay to quantify absolute cell number in order to account for cell loss during washing/mixing steps. OCR values were normalized to absolute cell number determined by the CyQUANT assay. […] Baseline OCR values were calculated by averaging the first three OCR measurements (0-12 minutes) prior to injection of compounds, maximal OCR values were calculated by subtracting the average non-mitochondrial OCR values (OCR following rotenone/[…]) from the OCR values after the injection with the uncoupler FCCP, and respiratory reserve capacity values were calculated by subtracting baseline OCR values from OCR values after addition of FCCP. For the Glycolysis Stress Test, the glycolysis ECAR was calculated by subtracting the average non-glycolytic acidification values (after 2-DG) from the values after glucose administration, the glycolytic capacity was calculated by subtracting the non-glycolytic acidification ECAR values from ECAR values after addition of oligomycin, and the glycolytic reserve was calculated by subtracting the ECAR values after addition of glucose from the ECAR values after addition of oligomycin, according to the manufacturer's instructions.

In assay [2] the test system is iPSC-derived cardiomyocytes. The assay can be described thus: qPCR mRNA expression in iPSC-derived cardiomyocytes. The format is cell-based, human. The protocol: To prepare for differentiation, iPSCs were plated at a density between 20,000 to 80,000 cells (depending on the cell line) per well of a 12-well plate at four days prior to onset of differentiation. Cells were differentiated according to the protocol previously described by Lian et al. with some modifications (FIG. 1A) (1). Basal media was changed from StemFlex to RPMI/B27 on day 0 of differentiation. The GSK3 inhibitor, CHIR99021 (6 μM), was added for 48 hours from day 0 to day 2 of differentiation when cells were approximately 70-80% confluent. The Wnt antagonist IWP4 (5 μM) was added from days 2 to 4 of differentiation. Insulin (10 μg/ml) was added to the media starting on day 7 of differentiation, and media was changed every 2-3 days. In general, higher purity (TNNT2+) cardiomyocytes were observed when beating initiated prior to day 10 of differentiation, therefore only batches with onset of beating between days 7-10 of differentiation were included in this study. Beating cardiomyocytes were treated with Torin1 (200 nM, unless otherwise noted) or vehicle (0.02% dimethylsulfoxide (DMSO)) beginning at ˜2 days after onset of beating for 7 days (media changed with fresh Torin1 or DMSO every 2-3 days), unless otherwise noted. After Torin1 treatment, media was switched back to RPMI/B27/insulin and maintained with media change every 2-3 days until endpoint assay. In a few assays, fatty acids were added in the form of chemically defined lipids (Gibco) diluted 1:1000 simultaneous with Torin1 treatment. In some other assays, fetal bovine serum (10% FBS) was added to cells after completion of Torin treatment for 2-4 days.
RNA was extracted from cells using RiboZol (VWR) followed by the E.Z.N.A. Total RNA I kit (Omega) then reverse transcribed to cDNA with the High Capacity cDNA Reverse Transcription kit (Thermo Fisher Scientific) according to the manufacturer's instructions. Quantitative PCR (qPCR) was performed using the iTaq Universal SYBR Green Supermix (Bio-Rad) and the primer pairs listed in Table 1 with a Bio-Rad CFX384 Real-Time thermal cycler. TATA-binding protein (TBP) was used as the housekeeping gene.
Background: Real-time PCR tracks product formation cycle by cycle.

Setting [3] is: Torin1 10-200 nM, 7 days, BJRiPS-CMs, FIG. 1E.

Take `CCC(=O)N1CCN(c2ccc(-n3c(=O)ccc4cnc5ccc(-c6cnc7ccccc7c6)cc5c43)cc2C(F)(F)F)CC1` [Torin1]: the “normalized maximal OCR” value in assay [1] (Torin1 200 nM 7 days, BJRiPS-CMs, FIG. 3B) is on record as “significant increase”. The “ECAR from non-glycolytic acidification” value in assay [1] (Torin1 200 nM 7 days, FIG. 12C) is on record as “decrease in ECAR from non-glycolytic acidification”. Besides, in assay [1] (Torin1 200 nM 7 days, FIGS. 12A-12B), the “extracellular acidification rate (ECAR)” value was “trend toward decreased”. In addition, the “maximal OCR” value in assay [1] (Torin1 7 days, Gibco iPSC-derived cardiomyocytes) is given as “significantly increases the maximal OCR”. Besides, in assay [2] (200 nM Torin1 about two days after onset of beating, BJRiPS, FIGS. 18B-18D), the “mRNA expression of TNNI3, CACNA1c and SERCA2a” value is reported as “robust increase in mRNA expression”. For the same compound, the “fatty acid transport protein 6 (FATP6) mRNA” value in assay [2] (FIG. 3F) is “increase in mRNA expression”. Besides, the “HCN4 mRNA” value in assay [2] (FIG. 4A) is given as “non-significant trend of increased HCN4”. In addition, the “selected mitochondrial genes (qPCR) or proteins (western)” value in assay [2] (FIGS. 13A-13B) is “Significant changes in selected mitochondrial genes (FIG. 13A) or proteins (FIG. 13B) were not observed”. Further, the “E2F4 mRNA” value in assay [2] (Torin1 200 nM from day 9, BJRiPS, FIG. 25B) is given as “increased mRNA expression of the inhibitory E2F member, E2F4”. In assay [2] (Torin1 200 nM from day 9, FIG. 25C), the “RBL2 (p130) mRNA” value is given as “increased mRNA expression of RBL2”. Besides, in assay [2] (Torin1 200 nM from day 9, FIG. 25D), the “MDM2 mRNA” value is reported as “decreased mRNA expression of the E2 ubiquitin-protein ligase, MDM2”. Further, in assay [2] (Torin1 10, 50, 200 nM, 7 days, BJRiPS-CMs, FIG. 2A), the “MYH6, MYH7, TNNT2 mRNA” value is “trended toward increased expression”. In addition, in assay [2] (Torin1 10, 50, 200 nM, 7 days, FIG. 3F), the “PPARGC1a mRNA expression” value was “dose-dependent increase”. Further, in assay [2] (setting [3]), the “cyclin C1 and E2F1 proliferative markers (qPCR)” value was “significant decrease”; the “expression of quiescence markers including p16 and p130 (qPCR)” value is on record as “non-significant trends toward increased expression”. Moreover, the “KCNJ2, CACNA1c, RYR2, ATP2A2 (SERCA2A), SCN5A mRNA” value in assay [2] (Torin1 10 or 200 nM, 7 days, FIG. 4A) is on record as “significant dose-dependent increase”. Moreover, the “mRNA expression of p21” value in assay [2] (discussion of Example 1) was “significantly decreased mRNA expression”. In addition, the “TNNI3 mRNA expression” value in assay [2] (dose-dependent, Torin1 10, 50, 200 nM, 7 days, FIG. 2A) is “significantly increased”. Further, the “E2F1 mRNA” value in assay [2] (immediately after Torin1 treatment, transient increase at ~5 days, FIG. 25A) was “trend toward decreased mRNA expression of the stimulatory E2F member, E2F1”. In addition, the “TNNI3 expression by time of Torin1 initiation (qPCR)” value in assay [2] (initiation about 2 days after onset of beating, BJRiPS, FIG. 20A) was “trend toward higher TNNI3 expression”. The “CDKN1a (p21) mRNA” value in assay [2] (trend, Torin1 200 nM from day 9, FIG. 25E) was “decreased mRNA expression of the cyclin inhibitor CDKN1a (p21)”. Besides, in assay [2] (trend, Torin1 200 nM from day 9, FIG. 25F), the “CDK2 mRNA” value is “increased mRNA expression of the cyclin-dependent kinase, CDK2”.
